Results taken from patent US6172262A, “Amphiphilic agents for membrane protein solubilization” (priority 1999, dated 2001).

Assay: CMC by uptake of fluorescent dye 1,6-diphenylhexatriene, fluorescence spectroscopy
Format: physicochemical
Details: for CMC (Critical Micelle Concentration): uptake of 1,6-diphenylhexatriene, 25 mM sodium phosphate pH 6.9, Table 1 and text; for CMC: Table 2, dye uptake versus concentration monitored by fluorescence spectroscopy
Method: The CMCs of detergents 4.65-4.72 were determined by monitoring the uptake of a fluorescent dye (1,6-diphenylhexatriene) with increasing detergent concentration (Table 1, CMC's determined by dye uptake versus concentration monitored by fluorescence spectroscopy). The CMCs of N-oxide isomers 4.65, 4.67, and 4.68 are very similar: 3 mM, 3 mM, and […], respectively. […] The CMCs for the N-oxides 4.65 and 4.66 are twice the CMCs of the corresponding hydrochloride salts (4.78 and 4.79). The hydrochloride salts were formed from the amine precursors to the N-oxides. Most cationic detergents have CMCs that are much higher than non-ionic or zwitterionic analogs. For example, dodecylammonium bromide has a CMC of 15 mM which is >7 times larger than the CMC of the N-oxide analog (LDAO, CMC=2 mM).
The CMCs of 4.100 and 4.104 were determined by the uptake of the fluorescent dye 1,6-diphenylhexatriene. The CMCs are 0.125 mM and 0.700 mM respectively. These values are substantially lower than the CMC of 4.65, which was determined to be 3 mM.
The CMC of a detergent can be determined experimentally by measuring the solubilization of a water-insoluble dye or fluorophore while varying the concentration of detergent. CMC may also be determined by measuring the diminution of the surface tension of an aqueous solution as a function of detergent concentration. (CMC's determined by either method correlate with each other.) The CMC is determined by extrapolating the plot of solubilization vs. concentration (or surface tension vs. concentration) in the two linear regions above and below the CMC. Where the two lines intersect is the CMC. In this Example, CMC's were determined by the method of Nugebauer, J. M. (1990), Methods in Enzymology, 182:239-253:
Tripod solutions in aqueous solutions containing 25 mM sodium phosphate pH 6.9 were prepared and transferred to screw-capped vials, and […] of a 1,6-diphenylhexatriene solution (DPH, 3.125 mM DPH in THF) was added. The solutions were vortexed at room temperature for 30 seconds. The solutions were placed into a 3 mm×3mm quartz cell and the fluorescence spectrum was obtained (excitation 358 nm, emission 430 nm, excitation slit width=1 mm, emission slit width=20 nm, PMT voltage=700). The fluorescence intensity of each sample was plotted against amphiphile concentration. […] The data points immediately surrounding the CMC were not considered due to non-linear behavior. See Tables 1 and 2, above, for the results.

SMILES | CMC (Critical Micelle Concentration) | CMC of 4.70 relative to that of 4.68 | CMC
CCCCC(CCCC)(CC(=O)N(C)CCC[N+](C)(C)[O-])c1ccccc1 [Detergent 4.67] | 3 mM |  | 
CCCCC(CCCC)(CC(=O)NC(C)(C)C[N+](C)(C)[O-])c1ccccc1 [Detergent 4.68] | 1.2 mM |  | 
CCCCC(CCCC)(CC[N+](C)(C)[O-])c1ccccc1 [Detergent 4.69] | 2.5 mM |  | 
CCCCC(CCCC)(CC(=O)N(CCC[N+](C)(C)[O-])CCC[N+](C)(C)[O-])c1ccccc1 [Detergent 4.71] | 10 mM |  | 
CCCCC(CCCC)(CC(=O)NCCCN(C)C)c1ccccc1 [Detergent 4.79] | 2.8 mM |  | 
CCCCC(CCCC)(CC(=O)N(C)CCCN(C)C)c1ccccc1 [Detergent 4.80] | 5 mM |  | 
CCCCC(CCCC)(CCN(C)C)c1ccccc1 [Detergent 4.82] | 5 mM |  | 
CCCCC(CCCC)(CC(=O)NCC(C)(C)CN(C)C)c1ccccc1 [Detergent 4.83] | 14.7 mM |  | 
CCCCC(CCCC)(CC(=O)N(CCCN(C)C)CCCN(C)C)c1ccccc1 [Detergent 4.84] | 24 mM |  | 24 mM
CN(C)CCCN(CCCN(C)C)C(=O)CC1(c2ccccc2)CCCCCCC1 [Detergent 4.85] |  |  | 80 mM
CCCCC(CC(=O)N(CCCN(C)C)CCCN(C)C)(c1ccccc1)c1ccccc1 [Detergent 4.86] |  |  | 21 mM
CCCCCCC(CC(=O)N(CCCN(C)C)CCCN(C)C)(c1ccccc1)c1ccccc1 [Detergent 4.87] |  |  | 4 mM
CN(C)CCCN(CCCN(C)C)C(=O)CC(c1ccc(-c2ccccc2)cc1)(c1ccc(-c2ccccc2)cc1)c1ccc(-c2ccccc2)cc1 [Detergent 4.90] |  |  | insol.
CCCCCCC(CCCC)(CCCC)CC(=O)N(CCCN(C)C)CCCN(C)C [Detergent 4.92] |  |  | 1 mM
CN(C)CCCN(CCCN(C)C)C(=O)CC1(C2CCCCC2)CCCCCCC1 [Detergent 4.95] |  |  | 24 mM
CCCCCCCCCCc1ccc(C(=O)N(CC)CC[N+](C)(C)[O-])cc1 [Detergent 4.100] | 0.125 mM |  | 
CCCCC(C)(CCCC)c1ccc(C(=O)N(CC)CC[N+](C)(C)[O-])cc1 [Detergent 4.104] | 0.700 mM |  | 

Other lines, results leading:

CMC (Critical Micelle Concentration) | CMC of 4.70 relative to that of 4.68 | CMC | SMILES
7.5 mM | six times larger |  | CCCCC(CCCC)(CC(=O)NCC(C)(C)C[N+](C)(C)[O-])c1ccccc1 [Detergent 4.70]
1.3 mM |  |  | CCCCC(CCCC)(CC(=O)N(CC)CCN(C)C)c1ccccc1 [Detergent 4.78]
 |  | 30 mM | CN(C)CCCN(CCCN(C)C)C(=O)CC(c1ccccc1)(c1ccccc1)c1ccccc1 [Detergent 4.88]
 |  | 3 mM | CN(C)CCCN(CCCN(C)C)C(=O)CC(c1ccccc1)(c1ccccc1)c1ccc(C(C)(C)C)cc1 [Detergent 4.89]
 |  | insol. | CN(C)CCCN(CCCN(C)C)C(=O)CC(c1ccc(C(C)(C)C)cc1)(c1ccc(C(C)(C)C)cc1)c1ccc(C(C)(C)C)cc1 [Detergent 4.91]
 |  | 6 mM | CCCCC(CCCC)(CCCC)CC(=O)N(CCCN(C)C)CCCN(C)C [Detergent 4.93]
 |  | 3 mM | CCCCC(CC(=O)N(CCCN(C)C)CCCN(C)C)(C1CCCCC1)C1CCCCC1 [Detergent 4.94]
 |  | 4.6 mM | CCCCC(CCCC)(CC(=O)N(CCCN(C)C)CCCN(C)C)C1CCCCC1 [Detergent 4.96]
